From patent publication EP1948196B1, “USE OF TETRAORGANOSILICON COMPOUNDS” (Salama, Zoser B., priority 2005, dated 2007)
Values after ≈ are worked out from the molar mass of the structure shown. Like-named read-outs stand apart in the source and are kept apart here. Blank lines part the entries; values can stand above or below the compound they belong to. Numbered stars: 1 amine (or outer) side, 2 acyl side, 3 side chain; on linkers, the order of the positions; unused ones are H or OH. Bridge positions count the residues as written; N and C are the ends. Peptide text beside a SMILES is read from it. I, II: the chains in the order shown. X2 = c1ccc([Si](O[*:1])(O[*:2])c2ccccc2)cc1; OSiEt2O = CC[Si](CC)(O[*:1])O[*:2]

Experiments:
[1] = test system: Plattenepihtelkarzinomen oder Plasmozytomen; test: Effect against metastasis in rats; type: in vivo; conditions: in Ratten
colo205 (Kofon-Karzinom) = test: MTT test, triplicate, two-fold dilutions; type: cell-based; conditions: Homo sapiens
Protocol: (§1) Die Silan wurden in Ethanol aufgelöst und in Zellkulturmedien in Konzentrationen von bis zu 500 µg/ml resuspendiert. Es wurden MTT Tests in dreifacher Ausführung durchgeführt, für welche doppelte Lösungen (7 Schritte) und colo205 (Kofon-Karzinom), BxPC3 (pankreatisches Adenokarzinom) sowie T47D (Brustkrebs) benutzt wurden.

[2] = test system: BxPC3 (pankreatisches Adenokarzinom); test: MTT test, triplicate, two-fold dilutions; type: cell-based; conditions: Homo sapiens
Protocol: as §1

T47D (Brustkrebs) = test: MTT test, triplicate, two-fold dilutions; type: cell-based; conditions: Homo sapiens, T47D, read-out: IC50 T47D
Protocol: as §1

Angiosarkome [3] = test: Effect on angiosarcomas
Angiosarkome [4] = test: Effect on angiosarcomas; remark: listed apart in the source
Seminome = test: Effect on seminomas
Hepatitis B-Viren = test: Antiviral effect; conditions: in particular as vesicles holding antisense constructs
Lymphome = test: Effect on lymphomas
Rhino-Viren = test: Antiviral effect; conditions: in particular as vesicles holding antisense constructs
Osteosarkome = test: Effect on osteosarcomas
[5] = COLO 205, read-out: IC50 Colo205
[6] = COLO 205, up to 500 µg/ml, read-out: IC50 Colo205
[7] = BXPC-3, up to 500 µg/ml, read-out: IC50 BxPC3

Compound: CCCCCCCCCCCCCCCCC(=O)O[Si](C)(C)OC(=O)CCCCCCCCCCCCCCCC [Di(heptadecanoyloxy)dimethylslan]
- Wirkung gegen die Metastasierung von Plattenepihtelkarzinomen oder Plasmozytomen [1]: zeigen eine Wirkung

Compound: CCCCCCCCCCCCC(=O)O[Si](C)(C)OC(=O)CCCCCCCCCCCC [Si 3, Di (tridecanoyloxy) dimethylsilan]
- IC50 (colo205 (Kofon-Karzinom); [5]): 230 µg/mL (≈ 474 µM)
- IC50 ([2]; BXPC-3, read-out: IC50 BxPC3): 80 µg/mL (≈ 165 µM)
- IC50 (T47D (Brustkrebs)): 80 µg/mL (≈ 165 µM)
- Wirkung gegen die Metastasierung von Plattenepihtelkarzinomen oder Plasmozytomen [1]: zeigen eine Wirkung

Compound: CCCCCCCCCC(=O)O[Si](CC)(CC)OC(=O)CCCCCCCCC [Si 12, Di (decanoyloxy) diethylsilan]
- IC50 (colo205 (Kofon-Karzinom); [5]): 300 µg/mL (≈ 700 µM)
- IC50 ([2]; BXPC-3, read-out: IC50 BxPC3): 140 µg/mL (≈ 327 µM)
- IC50 (T47D (Brustkrebs)): 600 µg/mL (≈ 1400 µM)
- Wirkung gegen die Metastasierung von Plattenepihtelkarzinomen oder Plasmozytomen [1]: zeigen eine Wirkung

Compound: CCCCCCCCCCC(=O)O[Si](C)(C)OC(=O)CCCCCCCCCC [Si 2, Di (undecanoyloxy) dimethylsilan]
- IC50 (colo205 (Kofon-Karzinom); [6]): 125 µg/mL (≈ 292 µM)
- IC50 [2, 7]: 80 µg/mL (≈ 187 µM)
- IC50 (T47D (Brustkrebs); up to 500 µg/ml): 125 µg/mL (≈ 292 µM)
- Wirkung gegen die Metastasierung von Plattenepihtelkarzinomen oder Plasmozytomen [1]: zeigen eine Wirkung

Compound: CCCCCCCCCCCCCCC(=O)O[Si](C)(C)OC(=O)CCCCCCCCCCCCCC [Di(pentadecanoyloxy)dimethylsilan]
- Wirkung gegen die Metastasierung von Plattenepihtelkarzinomen oder Plasmozytomen [1]: zeigen eine Wirkung

Compound: CC(C)[C@H](N)C(=O)N[C@H](C(=O)N[C@H](C(=O)N[C@H](C(=O)N[C@H](C(=O)N[C@H](C(=O)O[Si](OC(=O)[C@@H](NC(=O)[C@@H](NC(=O)[C@@H](NC(=O)[C@@H](NC(=O)[C@@H](NC(=O)[C@@H](N)C(C)C)C(C)C)C(C)C)C(C)C)C(C)C)C(C)C)(c1ccccc1)c1ccccc1)C(C)C)C(C)C)C(C)C)C(C)C)C(C)C [Diphenyl bis(hexavalyl)silylester] (I: H-VVVVVV / II: H-VVVVVV; linker I:C-II:C via X2)
- Wirkung gegen Angiosarkome (Angiosarkome [3]): zeigen eine Wirkung

Compound: CCCCCCCCCCCCCCC(=O)O[Si](CCC)(CCC)OC(=O)CCCCCCCCCCCCCC [Di(pentadecanoyloxy)dipropylsilan]
- Wirkung gegen Angiosarkome (Angiosarkome [4]): zeigen eine Wirkung
- Wirkung auf Seminome (Seminome): zeigen eine Wirkung
- Wirkung gegen Hepatitis B-Viren (Hepatitis B-Viren): zeigen eine Wirkung

Compound: CC(C)[C@H](N)C(=O)N[C@H](C(=O)N[C@H](C(=O)N[C@H](C(=O)N[C@H](C(=O)N[C@H](C(=O)N[C@H](C(=O)N[C@H](C(=O)N[C@H](C(=O)O[Si](OC(=O)[C@@H](NC(=O)[C@@H](NC(=O)[C@@H](NC(=O)[C@@H](NC(=O)[C@@H](NC(=O)[C@@H](NC(=O)[C@@H](NC(=O)[C@@H](NC(=O)[C@@H](N)C(C)C)C(C)C)C(C)C)C(C)C)C(C)C)C(C)C)C(C)C)C(C)C)C(C)C)(c1ccccc1)c1ccccc1)C(C)C)C(C)C)C(C)C)C(C)C)C(C)C)C(C)C)C(C)C)C(C)C [Diphenyl bis(nonavalyl)silylester] (I: H-VVVVVVVVV / II: H-VVVVVVVVV; linker I:C-II:C via X2)
- Wirkung gegen Angiosarkome (Angiosarkome [3]): zeigen eine Wirkung

Compound: Diethyl bis(biphenylalanyl)silylester
- Wirkung auf Lymphome (Lymphome): zeigen eine Wirkung

Compound: CCCCCCCCC(=O)O[Si](CC)(CC)OC(=O)CCCCCCCC [Di(nonanoyloxy)diethyisilan]
- Wirkung gegen die Metastasierung von Plattenepihtelkarzinomen oder Plasmozytomen [1]: zeigen eine Wirkung

Compound: CCCCCCCCC(=O)O[Si](OC(=O)CCCCCCCC)(c1ccccc1)c1ccccc1 [Di(nonanoyloxy)diphenylsilan]
- Wirkung gegen Rhino-Viren (Rhino-Viren): zeigen eine Wirkung
- Wirkung auf Osteosarkome (Osteosarkome): zeigen eine Wirkung

Compound: CC(C)[C@H](N)C(=O)N[C@H](C(=O)N[C@H](C(=O)N[C@H](C(=O)O[Si](OC(=O)[C@@H](NC(=O)[C@@H](NC(=O)[C@@H](NC(=O)[C@@H](N)C(C)C)C(C)C)C(C)C)C(C)C)(c1ccccc1)c1ccccc1)C(C)C)C(C)C)C(C)C [Diphenyl bis(tetravalyl)silylester]
- Wirkung gegen Angiosarkome (Angiosarkome [3]): zeigen eine Wirkung

- IC50 (colo205 (Kofon-Karzinom); [6]): 125 µg/mL (≈ 205 µM)
- IC50 [2, 7]: 60 µg/mL (≈ 98.5 µM)
- IC50 (T47D (Brustkrebs); up to 500 µg/ml): 80 µg/mL (≈ 131 µM)
Compound: CCCCCCCCCCCCC(=O)O[Si](OC(=O)CCCCCCCCCCCC)(c1ccccc1)c1ccccc1 [Si 7, Di (tridecanoyloxy) diphenylslan]
- Wirkung gegen Rhino-Viren (Rhino-Viren): zeigen eine Wirkung
- Wirkung auf Osteosarkome (Osteosarkome): zeigen eine Wirkung

Compound: CCCCC/C=C\C/C=C\CCCCCCCC(=O)O[Si](OC(=O)CCCCCCC/C=C\C/C=C\CCCCC)(c1ccccc1)c1ccccc1 [Di (linoylooxy)diphenylsilan]
- Wirkung gegen Rhino-Viren (Rhino-Viren): zeigen eine Wirkung
- Wirkung auf Osteosarkome (Osteosarkome): zeigen eine Wirkung

Compound: CC/C=C\C/C=C\C/C=C\CCCCCCCC(=O)O[Si](OC(=O)CCCCCCC/C=C\C/C=C\C/C=C\CC)(c1ccccc1)c1ccccc1 [Di(linolenoylooxy)diphenylsilan]
- Wirkung gegen Rhino-Viren (Rhino-Viren): zeigen eine Wirkung
- Wirkung auf Osteosarkome (Osteosarkome): zeigen eine Wirkung

Compound: CCCCCCCCCCCC(=O)O[Si](CCC)(CCC)OC(=O)CCCCCCCCCCC [Di(dodecanoyloxy)dipropylsilan]
- Wirkung gegen Angiosarkome (Angiosarkome [4]): zeigen eine Wirkung
- Wirkung auf Seminome (Seminome): zeigen eine Wirkung
- Wirkung gegen Hepatitis B-Viren (Hepatitis B-Viren): zeigen eine Wirkung

- IC50 (colo205 (Kofon-Karzinom); [6]): 200 µg/mL (≈ 438 µM)
- IC50 [2, 7]: 100 µg/mL (≈ 219 µM)
- IC50 (T47D (Brustkrebs); up to 500 µg/ml): 180 µg/mL (≈ 394 µM)
Compound: CCCCCCCCCCC(=O)O[Si](CC)(CC)OC(=O)CCCCCCCCCC [Si 4, Di (undecanoyloxy) diethylslan]
- Wirkung gegen die Metastasierung von Plattenepihtelkarzinomen oder Plasmozytomen [1]: zeigen eine Wirkung

Compound: CCCCCCCC(=O)O[Si](CC)(CC)OC(=O)CCCCCCC [Di(octanoyloxy)diethylsilan]
- Wirkung gegen die Metastasierung von Plattenepihtelkarzinomen oder Plasmozytomen [1]: zeigen eine Wirkung

Compound: CCCCCCCCCCC(=O)O[Si](OC(=O)CCCCCCCCCC)(c1ccccc1)c1ccccc1 [Di(undecanoyloxy)diphenylsilan]
- Wirkung gegen Rhino-Viren (Rhino-Viren): zeigen eine Wirkung
- Wirkung auf Osteosarkome (Osteosarkome): zeigen eine Wirkung

Compound: CCCCCCCCCCCCC(=O)O[Si](CCC)(CCC)OC(=O)CCCCCCCCCCCC [Di(tridecanoyloxy)dipropylsilan]
- Wirkung gegen Angiosarkome (Angiosarkome [4]): zeigen eine Wirkung
- Wirkung auf Seminome (Seminome): zeigen eine Wirkung
- Wirkung gegen Hepatitis B-Viren (Hepatitis B-Viren): zeigen eine Wirkung

Compound: CCCCCCCC/C=C\CCCCCCCC(=O)O[Si](OC(=O)CCCCCCC/C=C\CCCCCCCC)(c1ccccc1)c1ccccc1
- Wirkung gegen Rhino-Viren (Rhino-Viren): zeigen eine Wirkung
- Wirkung auf Osteosarkome (Osteosarkome): zeigen eine Wirkung

Compound: CC[Si](CC)(OC(=O)CNC(=O)CNC(=O)CNC(=O)CNC(=O)CNC(=O)CNC(=O)CNC(=O)CN)OC(=O)CNC(=O)CNC(=O)CNC(=O)CNC(=O)CNC(=O)CNC(=O)CNC(=O)CN [Diethyl bis(octablycyl)silylester] (I: H-GGGGGGGG / II: H-GGGGGGGG; linker I:C-II:C via OSiEt2O)
- Wirkung gegen Angiosarkome (Angiosarkome [3]): zeigen eine Wirkung

Compound: CCCCCCCCCCCCCCCCC(=O)O[Si](OC(=O)CCCCCCCCCCCCCCCC)(c1ccccc1)c1ccccc1 [Di(heptadecanoyloxy)diphenylsilan]
- Wirkung gegen Rhino-Viren (Rhino-Viren): zeigen eine Wirkung
- Wirkung auf Osteosarkome (Osteosarkome): zeigen eine Wirkung

Compound: CCCCCCCCCCCCCC(=O)O[Si](CCC)(CCC)OC(=O)CCCCCCCCCCCCC [Di(tetradecanoyloxy)dipropylsilan]
- Wirkung gegen Angiosarkome (Angiosarkome [4]): zeigen eine Wirkung
- Wirkung auf Seminome (Seminome): zeigen eine Wirkung
- Wirkung gegen Hepatitis B-Viren (Hepatitis B-Viren): zeigen eine Wirkung
